According to patent US20150342954A1, “2-BENZYL, 3-(PYRIMIDIN-2-YL) SUBSTITUTED PYRAZOLES USEFUL AS SGC STIMULATORS” (IRONWOOD PHARMACEUTICALS, INC., priority 2011, published 2015):
Like-named read-outs stand apart in the source and are kept apart here.

Target: T1, soluble guanylate cyclase (sGC) (Homo sapiens, UniProt Q02108+Q02153)
T1 construct: endogenously expressing soluble guanylate cyclase (sGC); endogenous in cells; host or cells: HEK293
T1 sequence (Q02153 1-619): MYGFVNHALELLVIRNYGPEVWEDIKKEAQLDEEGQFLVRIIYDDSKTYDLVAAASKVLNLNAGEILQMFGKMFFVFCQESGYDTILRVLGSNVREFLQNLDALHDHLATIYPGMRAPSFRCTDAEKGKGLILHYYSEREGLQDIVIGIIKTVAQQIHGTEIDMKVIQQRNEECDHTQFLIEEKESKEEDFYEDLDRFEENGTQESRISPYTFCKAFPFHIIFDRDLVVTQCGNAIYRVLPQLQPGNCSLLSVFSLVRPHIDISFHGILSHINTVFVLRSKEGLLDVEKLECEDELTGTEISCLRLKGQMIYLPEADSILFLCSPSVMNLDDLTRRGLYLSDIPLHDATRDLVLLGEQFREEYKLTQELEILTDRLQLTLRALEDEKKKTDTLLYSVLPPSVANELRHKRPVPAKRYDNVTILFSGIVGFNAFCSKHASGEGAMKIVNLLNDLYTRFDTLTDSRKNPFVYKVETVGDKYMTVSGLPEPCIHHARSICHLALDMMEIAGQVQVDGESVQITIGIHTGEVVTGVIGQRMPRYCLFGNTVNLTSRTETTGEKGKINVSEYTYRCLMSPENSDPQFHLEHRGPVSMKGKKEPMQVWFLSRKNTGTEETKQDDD
T1 sequence (Q02108 1-690): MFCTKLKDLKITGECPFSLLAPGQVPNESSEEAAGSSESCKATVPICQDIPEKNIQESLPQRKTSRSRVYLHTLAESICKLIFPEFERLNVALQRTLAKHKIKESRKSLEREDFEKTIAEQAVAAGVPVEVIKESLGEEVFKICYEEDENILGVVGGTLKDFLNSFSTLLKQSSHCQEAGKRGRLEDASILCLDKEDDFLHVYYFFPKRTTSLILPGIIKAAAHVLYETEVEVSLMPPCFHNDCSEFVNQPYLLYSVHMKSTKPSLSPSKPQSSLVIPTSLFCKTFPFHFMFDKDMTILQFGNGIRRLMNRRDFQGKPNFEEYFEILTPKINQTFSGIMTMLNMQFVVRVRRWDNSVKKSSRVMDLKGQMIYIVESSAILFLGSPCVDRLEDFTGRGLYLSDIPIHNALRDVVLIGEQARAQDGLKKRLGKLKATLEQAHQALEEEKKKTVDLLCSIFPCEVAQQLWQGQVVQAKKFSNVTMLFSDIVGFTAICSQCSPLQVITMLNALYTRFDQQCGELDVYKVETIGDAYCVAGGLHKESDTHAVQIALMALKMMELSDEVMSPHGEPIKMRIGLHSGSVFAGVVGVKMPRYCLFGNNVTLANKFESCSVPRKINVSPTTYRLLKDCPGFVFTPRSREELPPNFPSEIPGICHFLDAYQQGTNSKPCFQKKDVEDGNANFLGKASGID
Experiment: sGC-HEK-cGMP assay (run with SNP incubation)
Format: cell-based
Settings: for Emax: Table 3A, 10 μM SNP, 100% = 30 μM BAY 41-2272 with 10 μM SNP, read-out: HEK assay Emax-unconstrained (Percent); for HEK MEC-10: concentration that would elicit 10% of the Emax in the presence of 10 μM SNP; for HEK MEC-10 / EC50: Table 3D; for EC50: in the presence of 10 μM SNP
Summary of the method: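 HEK293 cells with endogenous sGC were pre-treated 15 min at 37 °C with 0.5 mM IBMX, then exposed to test compound plus sodium nitroprusside for 10 min at 37 °C. Cells were lysed in 0.1 M HCl (4 °C, 30 min), and cGMP was quantified by LC/MS against a standard curve. EC50 values came from concentration-response curves.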

[1] = top of concentration-response curve not fitted to 100%
[2] = top of concentration-response curve not fitted to 100%, read-out: HEK assay EC50-unconstrained

| Emax [1] [%] | HEK MEC-10 | EC50 (read-out: HEK assay EC50) [nM] | EC50 [2] [nM] | SMILES |
| --- | --- | --- | --- | --- |
| 80 to 100 | C (0.1 to <1 μM) | < 20000 | 10 to 500 | Nc1nc(-c2cc(-c3ccon3)n(Cc3cccc(F)c3F)n2)ncc1NC(=O)C1(C(F)(F)F)CC1 [Compound 40] |
| 80 to 100 | A (0.001 to <0.01 μM) | < 20000 | 10 to 500 | Nc1nc(-c2cc(-c3ccon3)n(Cc3ccccc3F)n2)ncc1NC(=O)C1(F)CC1 [Compound 35] |
| 80 to 100 | B (0.01 to <0.1 μM) | < 20000 | 10 to 500 | Nc1nc(-c2cc(-c3ccon3)n(Cc3ccccc3F)n2)ncc1NC(=O)C1(c2ccccc2)CC1 [Compound 27] |
